Measured values: patent publication US20220192996A1, “CORE-SHELL STRUCTURE, PREPARATION, MEDICINE FOR EXTERNAL APPLICATION, TAPE AGENT AND COSMETIC PRODUCT” (SEKISUI CHEMICAL CO., LTD., priority 2019, published 2022)
Where a name gives a salt, the structure may show the parent alone.

What was measured:
[1] = test system: dorsal skin of a rabbit; experiment: Primary irritation index of the active ingredient (4% by weight in Plastibase); format: in vivo; conditions: 24 h enclosed application
Procedure: The phrase “low skin irritation” means skin irritation having a primary irritation index (P.I.I.) of 5 or less. The primary irritation index can be measured by the following method.
An active ingredient is added and mixed to an ointment base, Plastibase (manufactured by Taisho Pharmaceutical Co., Ltd.) so as to be 4% by weight based on the total weight, and dispersed to produce a preparation.
The dorsal skin of a rabbit is shaved with an electric clipper (with an electric shaver if necessary). On the dorsal healthy skin, two points in each of right and left sides of the dorsal midline, that is, four points in total are set to be an administration site. Next, the produced preparation is taken out with a spatula and spread evenly on a piece of lint having a size of 2 cm×2 cm, and the piece of lint is attached to the administration site. The piece of lint is fixed by covering with a non-woven adhesive bandage (manufactured by Nichiban Co., Ltd., MESHPORE, No. 50). Then, the administration sites are altogether wrapped with gauze and enclosed by covering with an adhesive cloth elastic bandage (manufactured by Nichiban Co., Ltd., ELASTOPORE, No. 100). The enclosure is released 24 hours after the start of administration, and the administered samples are removed.
The skin reaction is visually observed with the naked eye 24 hours after the administration (30 minutes after the release of the enclosure and the removal of the administered samples). […]
Specifically, for each administered sample at each time of observation, the individual score of the skin reaction at the administration site of each rabbit (the total of scores of erythema/eschar formation and edema formation) is calculated. Then, the primary irritation index (P.I.I.) is calculated from the individual scores at 24 hours and 72 hours after the administration (the score at 48 hours after the administration is not added). Specifically, the primary irritation index is calculated using Formulae (1) and (2) described below. […]

[2] = Octanol/water partition coefficient; format: physicochemical; conditions: Log10, octanol / aqueous buffer pH 7
Procedure: In the present invention, the octanol/water partition coefficient is determined from the concentration of the active ingredient in each phase by adding the active ingredient to octanol and an aqueous buffer solution having a pH of 7 in a flask and then shaking the flask. Specifically, the octanol/water partition coefficient can be determined by calculating using the formula: octanol/water partition coefficient=Log10 (concentration in octanol phase/concentration in aqueous phase).

Row | octanol/water partition coefficient [2] | logD ([2]; octanol / aqueous buffer solution) | Compound | primary irritation index (P.I.I.) of the active ingredient [1]
1 |  |  | CC12CC3CC(C)(C1)CC(N)(C3)C2 [memantine hydrochloride] | 2.5
2 |  |  | CC(C(=O)O)c1ccc(CC2CCCC2=O)cc1 (centres unmarked) [loxoprofen sodium dihydrate] | 0.3
3 | 0.0 | 0 | CCCc1nc(C)c2c(=O)[nH]c(-c3cc(S(=O)(=O)N4CCN(CC)CC4)ccc3OCC)nn12 [vardenafil hydrochloride hydrate] | 
4 |  |  | CCN(C)C(=O)Oc1cccc([C@H](C)N(C)C)c1 [rivastigmine] | 0.5
